Molecules are shown by their SMILES.

The test system of this assay is HCV 1b-377-neo replicon cells. Kind of assay: HCV replicon assay, HCV 1b-377-neo replicon cells (1b FRET). Type of assay: cell-based, Hepatitis C virus genotype 1b. Conditions: Hepatitis C virus, HCV 1b-377-neo replicon cells; HCV 1b genotype; read-out: EC50 range against HCV 1b (Table 2, Range). The method, boiled down:
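Compounds tested in HCV genotype 1b-377-neo replicon cells with a FRET read-out. Cells resistant to a reference NS5A inhibitor through a Y2065H NS5A mutation were run alongside wild-type cells.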
On the technique in general: Replicon systems follow genome replication, usually without infectious particles.
Turning to `COC(=O)N[C@@H](Cc1c[nH]nn1)C(=O)N1CCC[C@H]1c1ncc(-c2ccc(-c3ccc(-c4cnc([C@@H]5CCCN5C(=O)[C@H](Cc5c[nH]nn5)NC(=O)OC)[nH]4)cc3)cc2)[nH]1` [cj-125, methyl ((1S)-2-((2S)-2-(5-(4′-(2-((2S)-1-((2S)-2-((methoxycarbonyl)amino)-3-(1H-1,2,3-triazol-4-yl)propanoyl)-2-pyrrolidinyl)-1H-imidazol-5-yl)-4-biphenylyl)-1H-imidazol-2-yl)-1-pyrrolidinyl)-2-oxo-1-(1H-1,2,3-triazol-4-ylmethyl)ethyl)carbamate], the EC50 (commonly the concentration needed to bring the measured effect to its halfway point) fell in the range of 1 to 99 nM.

On to `COC(=O)N[C@@H](C)CC(=O)N1CCC[C@H]1c1ncc(-c2ccc(-c3ccc(-c4cnc([C@@H]5CCCN5C(=O)C[C@H](C)NC(=O)OC)[nH]4)cc3)cc2)[nH]1` [cj-126, dimethyl (4,4′-biphenyldiylbis(1H-imidazole-5,2-diyl(2S)-2,1-pyrrolidinediyl((2S)-4-oxo-4,2-butanediyl)))biscarbamate], for which the EC50 was in the range of 0.001 to 0.999 nM.

As for `COC(=O)N[C@H](CC(=O)N1CCC[C@H]1c1ncc(-c2ccc(-c3ccc(-c4cnc([C@@H]5CCCN5C(=O)C[C@@H](NC(=O)OC)C(C)C)[nH]4)cc3)cc2)[nH]1)C(C)C` [cj-127, dimethyl (4,4′-biphenyldiylbis(1H-imidazole-5,2-diyl(2S)-2,1-pyrrolidinediyl((3R)-4-methyl-1-oxo-1,3-pentanediyl)))biscarbamate], the EC50 lay in the range of 1 to 99 nM.

`COC(=O)N[C@H](CC(=O)N1CCC[C@H]1c1ncc(-c2ccc(-c3ccc(-c4cnc([C@@H]5CCCN5C(=O)C[C@@H](NC(=O)OC)c5ccccc5)[nH]4)cc3)cc2)[nH]1)c1ccccc1` [cj-128, methyl ((1R)-3-((2S)-2-(5-(4′-(2-(1-((3R)-3-((methoxycarbonyl)amino)-3-phenylpropanoyl)-2-pyrrolidinyl)-1H-imidazol-5-yl)-4-biphenylyl)-1H-imidazol-2-yl)-1-pyrrolidinyl)-3-oxo-1-phenylpropyl)carbamate]: the EC50 was 0.001 to 0.999 nM.

Take `COC(=O)N[C@@H](CC(=O)N1CCC[C@H]1c1ncc(-c2ccc(-c3ccc(-c4cnc([C@@H]5CCCN5C(=O)C[C@H](NC(=O)OC)c5ccccc5)[nH]4)cc3)cc2)[nH]1)c1ccccc1` [cj-129, methyl ((1S)-3-((2S)-2-(5-(4′-(2-(1-((3S)-3-((methoxycarbonyl)amino)-3-phenylpropanoyl)-2-pyrrolidinyl)-1H-imidazol-5-yl)-4-biphenylyl)-1H-imidazol-2-yl)-1-pyrrolidinyl)-3-oxo-1-phenylpropyl)carbamate]: the EC50 lay in the range of 0.001 to 0.999 nM.

Take `COC(=O)N[C@@H](Cc1ccccn1)C(=O)N1CCC[C@H]1c1ncc(-c2ccc(-c3ccc(-c4cnc([C@@H]5CCCN5C(=O)[C@H](Cc5ccccn5)NC(=O)OC)[nH]4)cc3)cc2)[nH]1` [cj-130, methyl ((1S)-2-((2S)-2-(5-(4′-(2-((2S)-1-((2S)-2-((methoxycarbonyl)amino)-3-(2-pyridinyl)propanoyl)-2-pyrrolidinyl)-1H-imidazol-5-yl)-4-biphenylyl)-1H-imidazol-2-yl)-1-pyrrolidinyl)-2-oxo-1-(2-pyridinylmethyl)ethyl)carbamate]: the EC50 fell in the range of 0.001 to 0.999 nM.

For `COC(=O)N[C@@H](Cc1c[nH]cn1)C(=O)N1CCC[C@H]1c1ncc(-c2ccc(-c3ccc(-c4cnc([C@@H]5CCCN5C(=O)[C@H](Cc5c[nH]cn5)NC(=O)OC)[nH]4)cc3)cc2)[nH]1` [cj-131, methyl ((1S)-2-((2S)-2-(5-(4′-(2-((2S)-1-((2S)-3-(1H-imidazol-4-yl)-2-((methoxycarbonyl)amino)propanoyl)-2-pyrrolidinyl)-1H-imidazol-5-yl)-4-biphenylyl)-1H-imidazol-2-yl)-1-pyrrolidinyl)-1-(1H-imidazol-4-ylmethyl)-2-oxoethyl)carbamate], the EC50 fell in the range of 1 to 99 nM.

Turning to `O=C1C[C@@H](C(=O)N2CCC[C@H]2c2ncc(-c3ccc(-c4ccc(-c5cnc([C@@H]6CCCN6C(=O)[C@@H]6CC(=O)NC(=O)N6)[nH]5)cc4)cc3)[nH]2)NC(=O)N1` [cj-132, (6S,6′S)-6,6′-(4,4′-biphenyldiylbis(1H-imidazole-5,2-diyl(2S)-2,1-pyrrolidinediylcarbonyl))didihydro-2,4(1H,3H)-pyrimidinedione], the concentration for a half-maximal effect (EC50) was 100 to 999 nM.

On to `CC(=O)NCCC(=O)N1CCC[C@H]1c1ncc(-c2ccc(-c3ccc(-c4cnc([C@@H]5CCCN5C(=O)CCNC(C)=O)[nH]4)cc3)cc2)[nH]1` [cj-134, N-(3-((2S)-2-(5-(4′-(2-((2S)-1-(3-acetamidopropanoyl)-2-pyrrolidinyl)-1H-imidazol-5-yl)-4-biphenylyl)-1H-imidazol-2-yl)-1-pyrrolidinyl)-3-oxopropyl)acetamide], for which the EC50 lay in the range of 1 to 99 nM.

As to `COC(=O)N[C@H](CCc1ccccc1)CC(=O)N1CCC[C@H]1c1ncc(-c2ccc(-c3ccc(-c4cnc([C@@H]5CCCN5C(=O)C[C@@H](CCc5ccccc5)NC(=O)OC)[nH]4)cc3)cc2)[nH]1` [cj-135, dimethyl (4,4′-biphenyldiylbis(1H-imidazole-5,2-diyl(2S)-2,1-pyrrolidinediyl((3R)-1-oxo-5-phenyl-1,3-pentanediyl)))biscarbamate], the EC50 was 1 to 99 nM.

For the molecule `COC(=O)N[C@H](CC(=O)N1CCC[C@H]1c1ncc(-c2ccc(-c3ccc(-c4cnc([C@@H]5CCCN5C(=O)C[C@H](Cc5cccs5)NC(=O)OC)[nH]4)cc3)cc2)[nH]1)Cc1cccs1` [cj-136, dimethyl (4,4′-biphenyldiylbis(1H-imidazole-5,2-diyl(2S)-2,1-pyrrolidinediyl((2R)-4-oxo-1-(2-thienyl)-4,2-butanediyl)))biscarbamate], the EC50 is 0.001 to 0.999 nM.

For `COC(=O)N[C@@H](CC(=O)N1CCC[C@H]1c1ncc(-c2ccc(-c3ccc(-c4cnc([C@@H]5CCCN5C(=O)C[C@@H](Cc5ccsc5)NC(=O)OC)[nH]4)cc3)cc2)[nH]1)Cc1ccsc1` [cj-137, dimethyl (4,4′-biphenyldiylbis(1H-imidazole-5,2-diyl(2S)-2,1-pyrrolidinediyl((2R)-4-oxo-1-(3-thienyl)-4,2-butanediyl)))biscarbamate], the EC50 is 1 to 99 nM.

With `COC(=O)N[C@@H](CC(=O)N1CCC[C@H]1c1ncc(-c2ccc(-c3ccc(-c4cnc([C@@H]5CCCN5C(=O)C[C@@H](Cc5cccs5)NC(=O)OC)[nH]4)cc3)cc2)[nH]1)Cc1cccs1` [cj-138, dimethyl (4,4′-biphenyldiylbis(1H-imidazole-5,2-diyl(2S)-2,1-pyrrolidinediyl((2S)-4-oxo-1-(2-thienyl)-4,2-butanediyl)))biscarbamate], the EC50 lay in the range of 1000 to 10000 nM.

As for `COC(=O)N[C@@H]1CCCC[C@H]1C(=O)N1CCC[C@H]1c1ncc(-c2ccc(-c3ccc(-c4cnc([C@@H]5CCCN5C(=O)[C@@H]5CCCC[C@H]5NC(=O)OC)[nH]4)cc3)cc2)[nH]1` [cj-139, dimethyl (4,4′-biphenyldiylbis(1H-imidazole-5,2-diyl(2S)-2,1-pyrrolidinediylcarbonyl(1R,2R)-2,1-cyclohexanediyl))biscarbamate], the EC50 was in the range of 1 to 99 nM.

On to `CN(C)CC[C@H](NC(=O)OC(C)(C)C)C(=O)N1CCC[C@H]1c1ncc(-c2ccc(-c3ccc(-c4cnc([C@@H]5CCCN5C(=O)[C@H](CCN(C)C)NC(=O)OC(C)(C)C)[nH]4)cc3)cc2)[nH]1` [cj-140, di-tert-butyl (4,4′-biphenyldiylbis(1H-imidazole-5,2-diyl(2S)-2,1-pyrrolidinediyl((2S)-4-(dimethylamino)-1-oxo-1,2-butanediyl)))biscarbamate], for which the EC50 is 100 to 999 nM.

For the molecule `COC(=O)N[C@@H]1CCCC[C@@H]1C(=O)N1CCC[C@H]1c1ncc(-c2ccc(-c3ccc(-c4cnc([C@@H]5CCCN5C(=O)[C@H]5CCCC[C@H]5NC(=O)OC)[nH]4)cc3)cc2)[nH]1` [cj-141, dimethyl (4,4′-biphenyldiylbis(1H-imidazole-5,2-diyl(2S)-2,1-pyrrolidinediylcarbonyl(1R,2S)-2,1-cyclohexanediyl))biscarbamate], the EC50 was in the range of 1000 to 10000 nM.

Take `CN(C)CC[C@H](N)C(=O)N1CCC[C@H]1c1ncc(-c2ccc(-c3ccc(-c4cnc([C@@H]5CCCN5C(=O)[C@@H](N)CCN(C)C)[nH]4)cc3)cc2)[nH]1` [cj-142, (3S,3′S)-4,4′-(4,4′-biphenyldiylbis(1H-imidazole-5,2-diyl(2S)-2,1-pyrrolidinediyl))bis(N~1~,N~1~-dimethyl-4-oxo-1,3-butanediamine)]: the EC50 lay in the range of 1000 to 10000 nM.

For the molecule `COC(=O)N[C@@H](CC(=O)N1CCC[C@H]1c1ncc(-c2ccc(-c3ccc(-c4cnc([C@@H]5CCCN5C(=O)C[C@@H](Cc5ccccc5)NC(=O)OC)[nH]4)cc3)cc2)[nH]1)Cc1ccccc1` [cj-143, dimethyl (4,4′-biphenyldiylbis(1H-imidazole-5,2-diyl(2S)-2,1-pyrrolidinediyl((2R)-4-oxo-1-phenyl-4,2-butanediyl)))biscarbamate], the EC50 is 1000 to 10000 nM.

Turning to `COC(=O)N[C@@H]1CC[C@H](C(=O)N2CCC[C@H]2c2ncc(-c3ccc(-c4ccc(-c5cnc([C@@H]6CCCN6C(=O)[C@H]6CC[C@@H](NC(=O)OC)C6)[nH]5)cc4)cc3)[nH]2)C1` [cj-144, dimethyl (4,4′-biphenyldiylbis(1H-imidazole-5,2-diyl(2S)-2,1-pyrrolidinediylcarbonyl(1R,3S)-3,1-cyclopentanediyl))biscarbamate], the EC50 was in the range of 0.001 to 0.999 nM.

For `COC(=O)N[C@H](Cc1ccccc1)C(=O)N1CCC[C@H]1c1ncc(-c2ccc(-c3ccc(-c4cnc([C@@H]5CCCN5C(=O)[C@@H](Cc5ccccc5)NC(=O)OC)[nH]4)cc3)cc2)[nH]1` [cj-145, methyl ((1R)-1-benzyl-2-((2S)-2-(5-(4′-(2-((2S)-1-((2R)-2-((methoxycarbonyl)amino)-3-phenylpropanoyl)-2-pyrrolidinyl)-1H-imidazol-5-yl)-4-biphenylyl)-1H-imidazol-2-yl)-1-pyrrolidinyl)-2-oxoethyl)carbamate], the EC50 was 1 to 99 nM.

For the origin of these results see patent US8574563B2 (Bristol-Myers Squibb Company, priority 2006, dated 2013).
